Here are results for two compounds from patent publication US20160280631A1, “ESTER COMPOUNDS INCLUDING TRIESTERS HAVING TERMINAL VICINAL ACYL GROUPS” (BIOSYNTHETIC TECHNOLOGIES, LLC., priority 2015, published 2016).

This data set in a line: kinematic viscosity (ASTM Method D445-97). It is filed as physicochemical. The conditions noted are these: measured at 100° C. On the procedure: Except as otherwise described, pour point is measured by ASTM Method D97-96a, cloud point is measured by ASTM Method D2500, viscosity/kinematic viscosity is measured by ASTM Method D445-97, viscosity index is measured by ASTM Method D2270-93 (Reapproved 1998), specific gravity is measured by ASTM Method D4052, flash point is measured by ASTM Method D92, evaporative loss is measured by ASTM Method D5800, vapor pressure is measured by ASTM Method D5191, and acute aqueous toxicity is measured by Organization of Economic Cooperation and Development (OECD) 203.

Regarding `CCCCC(CC)COC(=O)CCCCCCCCC(COC(C)=O)OC(C)=O` (centres unmarked) [Example 4], the kinematic viscosity result is on record as “less than 10 cSt”.
`CCCCC(CC)COC(=O)CCCCCCCCC(COC(=O)C(C)C)OC(=O)C(C)C` (centres unmarked) [Example 5]: the kinematic viscosity entry is “less than 10 cSt”.
